Data taken from patent US5866346A (priority 1997, dated 1999).
Where two headings read alike, the source gives them in different places.

Columns and labels:
[1] = target: kappa opioid receptor (KOR) (Cavia porcellus, UniProt P41144); conditions: read-out: KOR (Ki) Guinea pig (36); cited from earlier work
[2] = target: kappa opioid receptor (KOR) (Rattus norvegicus, UniProt P34975); conditions: cited from earlier work
[3] = target: T1, XOR1 (rat opioid receptor-like novel receptor) (Rattus norvegicus, UniProt P35370); test: Inhibition of forskolin-stimulated cyclic AMP increase in cells transiently transfected with XOR1; type: cell-based; conditions: 5 μM ligand, 10 μM forskolin
T1 construct: expressed in transfected cells; host or cells: CHO-K1 and HEK-293 cells, transient calcium phosphate transfection
T1 sequence (P35370 whole entry): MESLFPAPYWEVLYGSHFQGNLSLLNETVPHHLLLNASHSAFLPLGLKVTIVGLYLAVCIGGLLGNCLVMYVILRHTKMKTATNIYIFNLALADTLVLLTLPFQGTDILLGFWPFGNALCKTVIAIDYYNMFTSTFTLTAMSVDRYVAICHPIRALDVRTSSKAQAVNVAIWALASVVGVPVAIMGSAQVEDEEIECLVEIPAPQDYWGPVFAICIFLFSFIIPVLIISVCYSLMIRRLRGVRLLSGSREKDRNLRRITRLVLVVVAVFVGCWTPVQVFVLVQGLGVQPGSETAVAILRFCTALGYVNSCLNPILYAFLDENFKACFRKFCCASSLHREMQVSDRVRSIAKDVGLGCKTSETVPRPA
Description: FIGS. 4A and 4B. Inhibition of forskolin-stimulated cyclic AMP increase by dyn A-(1-13). CHO-K1 or HEK-293 cells transiently transfected with the XOR1 clone were treated with 10 μM forskolin with or without 5 μM dyn A-(1-13). The control cells were transfected with the plasmid vector and underwent the same treatment. Intracellular cyclic AMP content was determined using a radioimmunoassay kit (DuPont/NEN). Data are shown as mean ± S.E. (n=2). * indicates a significant-difference from the forskolin-only treated cells (Student's t-test, p<0.01).
Cell transfection and cyclic AMP assay--The CHO-K1 and HEK-293 cells were transiently transfected with either XOR1 (rat opioid receptor-like novel receptor) cDNA in pRc/CMV (Invitrogen) or vector only (as control) by calcium phosphate method as described by Chen et al., Mol. Cell Biol. 7:2745-2752 (1987). Three days after transfection, cells were harvested by trypsin treatment, washed and resuspended in serum-free medium. Cells were treated with ligands in the presence of 10 μM forskolin and 1 mM 3-iosbutyl-1-methylxanthine at 37° C. for 20 min. The reaction was terminated by adding 1/3 volume of 0.25M HCl. The mixture was boiled for 5 min and centrifuged at 14,000 g for 10 min. […] The cAMP in cells was determined by the nonacetylated method using the radioimmunoassay kit (DuPont/NEN) according to the manufacturer's instructions.

Chain of kappa opioid receptor (KOR) (Rattus norvegicus, UniProt P34975) (P34975 whole entry): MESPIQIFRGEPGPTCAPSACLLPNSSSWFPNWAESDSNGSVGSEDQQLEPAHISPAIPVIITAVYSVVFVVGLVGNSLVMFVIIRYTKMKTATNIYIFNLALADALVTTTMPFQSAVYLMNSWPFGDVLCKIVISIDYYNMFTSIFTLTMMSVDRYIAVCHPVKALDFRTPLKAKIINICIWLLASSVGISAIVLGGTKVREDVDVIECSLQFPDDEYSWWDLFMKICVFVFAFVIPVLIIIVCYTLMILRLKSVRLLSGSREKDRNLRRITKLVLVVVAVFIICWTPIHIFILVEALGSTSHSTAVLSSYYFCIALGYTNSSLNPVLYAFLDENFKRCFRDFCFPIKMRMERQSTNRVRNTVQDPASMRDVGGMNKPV
Chain of kappa opioid receptor (KOR) (Cavia porcellus, UniProt P41144) (P41144 whole entry): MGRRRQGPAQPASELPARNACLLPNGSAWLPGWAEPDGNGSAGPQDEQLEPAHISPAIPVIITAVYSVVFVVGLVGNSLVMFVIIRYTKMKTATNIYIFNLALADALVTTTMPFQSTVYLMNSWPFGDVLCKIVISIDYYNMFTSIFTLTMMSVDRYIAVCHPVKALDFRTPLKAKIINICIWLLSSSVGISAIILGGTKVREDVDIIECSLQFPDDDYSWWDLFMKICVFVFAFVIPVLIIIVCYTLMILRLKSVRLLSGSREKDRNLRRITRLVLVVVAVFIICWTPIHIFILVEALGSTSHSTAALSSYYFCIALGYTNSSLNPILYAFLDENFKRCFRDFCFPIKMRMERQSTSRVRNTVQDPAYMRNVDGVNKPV

Compound	Ki [1] [nM]	Ki ([2]; read-out: KOR (Ki) Rat (27)) [nM]	Ki ([2]; read-out: KOR (Ki) Rat (33)) [nM]	Ki ([2]; read-out: KOR (Ki) Rat (34)) [nM]	inhibition of forskolin-stimulated cAMP increase ([3]; CHO-K1 cells) [%]	inhibition of forskolin-stimulated cAMP increase ([3]; HEK-293 cells) [%]
CC[C@H](C)[C@H](NC(=O)[C@H](CCCNC(=N)N)NC(=O)[C@H](CCCNC(=N)N)NC(=O)[C@H](CC(C)C)NC(=O)[C@H](Cc1ccccc1)NC(=O)CNC(=O)CNC(=O)[C@@H](N)Cc1ccc(O)cc1)C(=O)N[C@@H](CCCNC(=N)N)C(=O)N1CCC[C@H]1C(=O)N[C@@H](CCCCN)C(=O)N[C@@H](CC(C)C)C(=O)N[C@@H](CCCCN)C(=O)N[C@@H](Cc1c[nH]c2ccccc12)C(=O)N[C@@H](CC(=O)O)C(=O)N[C@@H](CC(N)=O)C(=O)N[C@@H](CCC(N)=O)C(=O)O [dyn A, dynorphin A]	0.58	0.15	0.05	0.11		
CC[C@H](C)[C@H](NC(=O)[C@H](CCCNC(=N)N)NC(=O)[C@H](CCCNC(=N)N)NC(=O)[C@H](CC(C)C)NC(=O)[C@H](Cc1ccccc1)NC(=O)CNC(=O)CNC(=O)[C@@H](N)Cc1ccc(O)cc1)C(=O)N[C@@H](CCCNC(=N)N)C(=O)N1CCC[C@H]1C(=O)N[C@@H](CCCCN)C(=O)N[C@@H](CC(C)C)C(=O)N[C@@H](CCCCN)C(=O)O [dyn A-(1-13), dynorphin A (1-13)]	0.71			0.12	51	35
